Several values for one entry are separate records, joined by “and”; a condition that tells them apart may be missing. Equal entries are not always repeated.

This passage reports CC50, MIC and Cytotoxicity results from patent US20060166867A1, “Novel conjugates of polysaccharides and uses thereof” (priority 2003, published 2006).

One data set can be described thus: in vitro. It is filed as cell-based. Conditions: human; Table 4; tryphan blue exclusion assay for MT2 cells; read-out: Cytotoxicity. In outline: (§1)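 MT2 or cMAGI reporter cells infected with wild-type or resistant HIV-1 at 0.2-0.5 MOI for 4 days at 37° C with varying pAAC concentrations. Infection scored by counting blue-stained cMAGI cells and by microscopic syncytium assessment in MT2; cytotoxicity by trypan blue exclusion, as % dead cells.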

For a further data set, the system named is K. pneumoniae B2511. The data set can be described thus: MIC, broth microdilution. The following applies: Klebsiella pneumoniae, Gram negative clinical isolate, read-out: Minimum Inhibitory Concentration. It is filed as cell-based.
Another data set relates to S. aureus MRSA. As to the kind of experiment: microbe, parasite or virus in culture. The following applies: Staphylococcus aureus, read-out: Minimum Inhibitory Concentration.
The next data set deals with MT2 cells. The data set can be described thus: in vitro. In kind it is cell-based. The following applies: human. In outline:
as §1

For data set [1], the system named is Enterococcus faecalis (clinical isolate). As to the kind of experiment: microbe, parasite or virus in culture. Conditions: read-out: Minimum Inhibitory Concentration.
A further data set has as its system S. epidermidis MRSE. The data set can be described thus: microbe, parasite or virus in culture. Conditions: Staphylococcus epidermidis, read-out: Minimum Inhibitory Concentration.
Data set [2] deals with K. pneumoniae-ESBL negative. As to the kind of experiment: microbe, parasite or virus in culture. The following applies: Klebsiella pneumoniae, read-out: Minimum Inhibitory Concentration.
The next data set relates to E. coli U23773^r. The data set can be described thus: microbe, parasite or virus in culture. Conditions: Escherichia coli, read-out: Minimum Inhibitory Concentration.
Another data set deals with Strep. Pyogenes (gr. A). The data set can be described thus: MIC, broth microdilution. In kind it is cell-based. Conditions: Streptococcus pyogenes; Gram positive clinical isolate; read-out: Minimum Inhibitory Concentration.
In a further data set the test system is S. epidermidis B32954. The data set can be described thus: MIC, broth microdilution. In kind it is cell-based, Staphylococcus epidermidis. Conditions: Staphylococcus epidermidis, B32954; Gram positive clinical isolate; read-out: Minimum Inhibitory Concentration.
For data set [3], the system named is Proteus mirabilis ATCC 7002. As to the kind of experiment: microbe, parasite or virus in culture. Conditions: ATCC7002, read-out: Minimum Inhibitory Concentration.
The next data set relates to S. aureus MSSA. The data set can be described thus: microbe, parasite or virus in culture. The following applies: Staphylococcus aureus, read-out: Minimum Inhibitory Concentration.
For the next data set, the system named is Enterobacter aerogenes. The data set can be described thus: microbe, parasite or virus in culture. The following applies: Klebsiella aerogenes, read-out: Minimum Inhibitory Concentration.
In data set [4] the test system is Escherichia coli ATCC 25922. As to the kind of experiment: microbe, parasite or virus in culture. Conditions: ATCC25922, read-out: Minimum Inhibitory Concentration.
In data set [5] the test system is Enterococcus faecalis ATCC 29212. The data set can be described thus: microbe, parasite or virus in culture. Conditions: ATCC29212, read-out: Minimum Inhibitory Concentration.
The next data set deals with E. Coli-ESBL positive. As to the kind of experiment: microbe, parasite or virus in culture. Conditions: Escherichia coli, read-out: Minimum Inhibitory Concentration.
In data set [6] the test system is Enterobacter cloacae W25161. The data set can be described thus: microbe, parasite or virus in culture. The following applies: W25161, read-out: Minimum Inhibitory Concentration.
For data set [7], the system named is Staphylococcus aureus ATCC 24213. As to the kind of experiment: microbe, parasite or virus in culture. Conditions: ATCC24213, read-out: Minimum Inhibitory Concentration.
A further data set concerns E. Coli-ESBL negative. As to the kind of experiment: microbe, parasite or virus in culture. Conditions: Escherichia coli, read-out: Minimum Inhibitory Concentration.

For `CC(=O)N[C@H](CCCNC(=N)N)C(=O)N[C@H](CCCNC(=N)N)C(=O)N[C@H](CCCNC(=N)N)C(=O)N[C@H](CCCNC(=N)N)C(=O)N[C@H](CCCNC(=N)N)C(=O)N[C@H](CCCNC(=N)N)C(=O)N[C@H](CCCNC(=N)N)C(=O)N[C@H](CCCNC(=N)N)C(=O)N[C@H](CCCNC(=N)N)C(=O)O` [Compound 12, D-Arg-9-mer-NHAc], the CC50 in the data set “in vitro” was found to be 150 µM.
With `NCC1OC(OC2C(CO)OC(OC3C(O)C(N)CC(N)C3OC3OC(CN)C(O)C(O)C3N)C2O)C(N)C(O)C1O` (stereo not shown) [Neomycin], the MIC in the data set on K. pneumoniae B2511 is 1.5 µg/mL and 1.65 µM; in the data set on S. aureus MRSA, 1 µg/mL and 1.1 µM; in data set [1], 128 µg/mL and 141 µM; in the data set on S. epidermidis MRSE, 0.5 µg/mL and 0.55 µM; in [2] it was 0.7 µg/mL and 0.77 µM; in the data set with E. coli U23773^r it was 141 µM and 128 µg/mL. Besides, the MIC is 16 µg/mL and 17.6 µM in the data set with Strep. Pyogenes (gr. A); 0.5 µg/mL and 0.55 µM in the data set with S. epidermidis B32954; 1.5 µg/mL and 1.65 µM in data set [3]; 1 µg/mL and 1.1 µM in the data set on S. aureus MSSA; 0.7 µg/mL and 0.77 µM in the data set on Enterobacter aerogenes; 1 µg/mL and 1.1 µM in data set [4]. For the same compound, the MIC in data set [5] was 128 µg/mL and 141 µM; in the data set on E. Coli-ESBL positive, 4 µg/mL and 4.4 µM; in [6] it was 3 µg/mL and 3.3 µM; in data set [7], 1.5 µg/mL and 1.65 µM; in the data set with E. Coli-ESBL negative, 1 µg/mL and 1.1 µM. For the same compound, the Cytotoxicity with MT2 cells is greater than 300 µM.
